Laboratory results reported in US20220144812A1, “QUINOLINE DERIVATIVES AND THEIR USE FOR THE TREATMENT OF CANCER” (Epizyme, Inc., priority 2019, published 2022).
Where two headings read alike, the source gives them in different places.

What was measured:
[1] = test system: 647V cells; assay: High throughput proliferation (HTP) assay; assay type: cell-based; settings: high throughput proliferation, read-out: CREBBP HTP IC50
Method in brief: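 Proliferation IC50 (micromolar) derived from a 7-day CellTiter-Glo viable-cell readout in 647V cells exposed, in triplicate, to rising compound concentrations; cells grown in DMEM plus 15% heat-inactivated FBS at 37° C under 5% CO2.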

[2] = molecular target: T1, EP300 (P300(1048-1664)) (Homo sapiens, UniProt Q09472); assay: Biochemical assay for EP300, SAMDI; settings: EP300, SAMDI; read-out: EP300 Biochemistry IC50
T1 construct: P300(1048-1664)
T1 sequence (Q09472 1048-1664): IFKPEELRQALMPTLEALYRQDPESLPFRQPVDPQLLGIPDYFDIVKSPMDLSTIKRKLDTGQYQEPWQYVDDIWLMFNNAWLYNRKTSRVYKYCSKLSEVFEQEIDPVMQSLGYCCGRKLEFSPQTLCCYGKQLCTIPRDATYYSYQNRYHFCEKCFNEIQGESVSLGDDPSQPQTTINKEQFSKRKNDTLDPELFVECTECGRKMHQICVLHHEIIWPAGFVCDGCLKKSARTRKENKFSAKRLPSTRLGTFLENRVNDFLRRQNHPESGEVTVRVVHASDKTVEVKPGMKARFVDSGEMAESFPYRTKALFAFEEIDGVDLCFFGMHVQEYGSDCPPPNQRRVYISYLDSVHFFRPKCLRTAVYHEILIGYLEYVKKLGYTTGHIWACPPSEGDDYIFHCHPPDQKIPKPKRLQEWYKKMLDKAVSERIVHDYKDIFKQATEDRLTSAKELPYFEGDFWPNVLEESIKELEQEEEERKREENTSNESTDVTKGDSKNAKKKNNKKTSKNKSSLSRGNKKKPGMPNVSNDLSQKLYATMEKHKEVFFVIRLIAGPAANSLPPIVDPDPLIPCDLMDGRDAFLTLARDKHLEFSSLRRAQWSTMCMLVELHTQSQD
Source text: The following example describes materials and methods relating to a biochemical assay for EP300. IC50 values (micromolar (μM)) are summarized in Table 1, Table 2, and Table 3 under the column labeled: “EP300 Biochemistry IC50 (micromolar).”

[3] = molecular target: T2, CREBBP (1084-1701) (Homo sapiens, UniProt Q92793); assay: Biochemical assay for CREBBP (1084-1701), SAMDI; settings: SAMDI, read-out: CREBBP Biochemistry IC50
T2 construct: measured in the following biochemical assay using CREBBP (1084-1701); purchased
T2 sequence (Q92793 1084-1701): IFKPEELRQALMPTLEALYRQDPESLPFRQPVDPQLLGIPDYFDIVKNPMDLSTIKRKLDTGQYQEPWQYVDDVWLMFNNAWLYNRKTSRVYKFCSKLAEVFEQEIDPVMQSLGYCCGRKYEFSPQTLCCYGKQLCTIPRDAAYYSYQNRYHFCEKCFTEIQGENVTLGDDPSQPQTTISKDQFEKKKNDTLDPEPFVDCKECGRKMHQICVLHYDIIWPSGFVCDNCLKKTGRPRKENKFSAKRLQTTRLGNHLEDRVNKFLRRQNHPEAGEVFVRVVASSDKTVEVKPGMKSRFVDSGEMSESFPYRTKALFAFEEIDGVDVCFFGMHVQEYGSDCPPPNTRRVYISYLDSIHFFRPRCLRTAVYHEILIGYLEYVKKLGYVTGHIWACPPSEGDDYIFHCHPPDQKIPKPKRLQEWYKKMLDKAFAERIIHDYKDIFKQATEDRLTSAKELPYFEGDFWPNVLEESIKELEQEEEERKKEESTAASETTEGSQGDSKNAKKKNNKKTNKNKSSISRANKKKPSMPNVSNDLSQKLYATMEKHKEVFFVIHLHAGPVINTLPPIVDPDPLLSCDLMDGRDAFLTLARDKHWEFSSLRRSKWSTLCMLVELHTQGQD
Method in brief: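 Acetyltransferase activity measured by SAMDI mass spectrometry after capture on biochip. Enzyme sat with compound 30 min at RT before acetyl-CoA and biotinylated H3 11-25 (K14R, K23R) peptide were added for 30 min at RT. Formic acid quench, bicarbonate neutralisation; IC50 values reported.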

[4] = test system: H3K18Ac in HB-CLS-2 cells; assay: H3K18AC in-cell western (ICW) assay; assay type: cell-based; settings: H3K18Ac in-cell western, read-out: CREBBP ICW IC50
Method in brief: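 In-cell western: after methanol fixation, blocking, overnight 4° C anti-H3K18Ac staining, then 800CW secondary plus DRAQ5 for DNA content, integrated intensities were scanned at 800 and 700 nm. Before this, compound exposure lasted 2 hr at 37° C in HB-CLS-2 cells plated 16–24 hours earlier. Values expressed as IC50 (μM).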

[5] = Homo sapiens, 647-V, 647V cells

IC50 [2] [nM] | IC50 [3] [nM] | IC50 [4] [nM] | IC50 ([4]; HB-CLS-2 cells) [nM] | SMILES | IC50 ([1]; Homo sapiens, 647-V) [nM] | IC50 [1, 5] [nM] | IC50 [1] [nM]
8.7 | 22.9 | 32.1 | – | CCn1ncc(CN(C)C(=O)c2nc(-c3cc4c(NC)[nH]nc4cc3C)nc3ccc(C4CC4)cc23)c1C [Compound 614] | 34.6 | – | –
937 | 88.2 | 2050 | – | CCn1ncc(CN(C)C(=O)c2nc(-c3ccc(OCCCNC)c(C(C)C)c3)nc3ccc(Cl)cc23)c1C [Compound 440] | 991 | – | –
3.5 | 14.9 | 137 | – | CCn1ncc(CN(C)C(=O)c2nc(-c3cc(N)c4cn[nH]c4c3)nc3ccc(COC)cc23)c1C [Compound 499] | 183 | – | –
7.6 | 64.8 | 185 | – | CCn1ncc(CN(C)C(=O)c2cc(-c3cc4n[nH]cc4cn3)nc3ccc(COC)cc23)c1C [Compound 506] | 567 | – | –
170 | 84 | 210 | – | CCn1ncc(CN(C)C(=O)c2nc(-c3cc4nc[nH]c4cc3Cl)nc3ccc(Cl)cc23)c1C [Compound 26] | 130 | – | –
13 | 29 | – | 110 | CCn1ncc(CN(C)C(=O)c2cc(-c3cc4[nH]cnc4cn3)nc3ccc(Cl)cc23)c1C [Compound 400] | – | 110 | –
33.7 | 13.7 | 113 | – | CCc1ncc(CN(C)C(=O)c2nc(-c3cc(N)c4c[nH]nc4c3)nc3ccc(Cl)cc23)n1C [Compound 546] | 96.4 | – | –
3870 | 3380 | 1520 | – | CCc1noc(CN(C)C(=O)c2cc(-c3ccc(NCCNC)c(C)n3)nc3ccc(Cl)cc23)n1 [Compound 575] | 1530 | – | –
20 | 39 | 220 | – | CCn1ncc(CN(C)C(=O)c2nc(-c3ccc(OCC(O)CN4CCCC4)c(Cl)c3)nc3ccc(Cl)cc23)c1C (centres unmarked) [Compound 27] | 110 | – | –
7800 | 8300 | 5300 | – | CCn1ncc(CN(C)C(=O)c2nc(-c3ccc(OCCC(=O)NC)c(OC)c3)nc3ccc(Cl)cc23)c1C [Compound 137] | 4700 | – | –
50000 | 50000 | – | 20000 | CCn1ncc(CN(C)C(=O)c2nc(-c3cc(C#N)n(C)n3)nc3ccc(Cl)cc23)c1C [Compound 406] | – | 20000 | –
2500 | 820 | 1300 | – | CCn1ncc(CN(C)C(=O)c2nc(-c3ccc(OCCCNC)c(OC)c3)nc3ccc(Cl)cc23)c1C [Compound 84] | 850 | – | –
37.8 | 2.5 | 84.8 | – | CCn1ncc(CN(C)C(=O)c2nc(-c3cc(N)c4cn[nH]c4c3)nc3ccc(Cl)cc23)c1C [Compound 438] | 78.5 | – | –
4240 | 3310 | 3210 | – | Cc1nc(-c2cc(C(=O)N(C)Cc3cn(C)c(CC(F)(F)F)n3)c3cc(Cl)ccc3n2)ccc1NCCN(C)C [Compound 626] | 5780 | – | –
880 | 840 | 1400 | – | CCn1ncc(CN(C)C(=O)c2nc(-c3ccnc(Cl)c3)nc3ccc(NC)cc23)c1C [Compound 87] | 1400 | – | –
1500 | 4800 | 2800 | – | CCn1ncc(CN(C)C(=O)c2cc(-c3ccc(NCCN(C)C(=O)OC(C)(C)C)cn3)nc3ccc(Cl)cc23)c1C [Compound 113] | 6700 | – | –
83 | 27 | 380 | – | CCn1ncc(CN(C)C(=O)c2nc(-c3cc(C)c4n[nH]cc4c3)nc3ccc(Cl)cc23)c1C [Compound 44] | 270 | – | –
320 | 41 | 410 | – | CCn1ncc(CN(C)C(=O)c2nc(-c3ccc(OCCCNC)c(C4CC4)c3)nc3ccc(Cl)cc23)c1C [Compound 46] | 200 | – | –
14000 | 25000 | – | 20000 | CCn1ncc(CN(C)C(=O)c2nc(-c3cc(CNC)n(C)n3)nc3ccc(Cl)cc23)c1C [Compound 380] | – | 20000 | –

SMILES | IC50 [2] [nM] | IC50 [3] [nM] | IC50 [4] [nM] | IC50 ([4]; HB-CLS-2 cells) [nM] | IC50 ([1]; Homo sapiens, 647-V) [nM] | IC50 [1, 5] [nM] | IC50 [1] [nM]
CCn1ncc(CN(C)C(=O)c2cc(-n3cc4c(n3)CNCC4)nc3ccc(Cl)cc23)c1C [Compound 168] | 5800 | 18000 | 13000 | – | – | – | 18000
